{"source": "patent US5817669A", "about": "“Compounds, processes for the preparation thereof and anti-tumor agents” (Dainippon Pharmaceutical Co., Ltd., priority 1994, dated 1998)", "key": {"[1]": {"test_system": "murine P388 lymphocytic leukemia cells", "assay": "Increases in life span of mice implanted with murine P388 lymphocytic leukemia cells", "type": "in vivo, SLC: BDF1 mice", "conditions": "Mus musculus, P388, ip, 720 h, ip"}, "[2]": {"test_system": "human cancer cells (KB, MX-1, WiDr, HMV-2, LX-1) implanted in nude mice", "assay": "Growth inhibition of human cancer cells implanted in nude mice (Test Examples 5 to 9)", "type": "in vivo, human cancer cells in BALB/c nude mice", "conditions": "50 mg/kg, FIGS. 1-9 (cell line not stated)", "description": "In the following Test examples 5 to 9, human cancer cells were implanted in nude mice, to which test compounds dissolved in an aqueous solution containing NaOH were administered, and, thus, the degree of growth inhibition of cancer cells was observed.\nFIGS. 1-9 show the variation with the lapse of days of IR.\nFIGS. 10-14 show the relation between tumor weight and the lapse of days in the case where Compound 1--1 was used in Test examples 5-9. Vertical axis corresponds to tumor weight, and horizontal axis corresponds to the days which passed after the start of administration. Tumor weight was estimated from tumor diameter. The term Control in FIGS. 10-14 means tumor weight variation with days in nude mice to which, although cancer cells had been implanted, no test compounds had been administered.\nIn the following, there is explained schedule of administration of test compounds in nude mice. After days of × in number have passed from implantation of human cancer cells in nude mice, test compounds are intraperitoneally (ip) administered for y days, followed by wash-out periods of days of z in number. Thereafter, test compounds are administered again for y days. In this case, the cycle of administration (y days) and discontinuation (z days) is called \"course\". Such a schedule is denoted by marks as follows:\n[(x) (y) (z) (course) (ip)]\nThese marks are explained below with an example. […]"}, "[3]": {"test_system": "MKN45 human stomach cancer", "assay": "In vitro anti-tumor activity against MKN45 human stomach cancer (MTT)", "type": "cell-based", "conditions": "MKN-45, MKN45, 72 h, MTT, read-out: IC50", "how_it_was_run": "(§1)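 Seed 500–2,000 cancer cells per well and culture 20 hours at 37° C in 5% CO2. Add compound at set concentrations and incubate 72 hours. Add MTT for 4 hours, remove supernatant, dissolve formazan in DMSO.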"}, "Acute toxicity": {"assay": "Acute toxicity", "conditions": "mouse, in vivo; Intraperitoneal administration (ip), mice, 14th day", "description": "Solutions of test compounds in predetermined concentrations were administered (0.1 ml/10 g body weight) to female BALB/c CrSlc mice (5 to 10 animals per one group, 10 weeks old) respectively, and, thus, LD50 values were calculated from the mortalities of the mice on the 14th day after the administration."}, "A427 human lung cancer": {"test_system": "A427 human lung cancer", "assay": "In vitro anti-tumor activity against A-427 human lung cancer (MTT)", "type": "cell-based", "conditions": "A-427, 72 h, MTT, read-out: IC50", "how_it_was_run": "as §1"}, "[4]": {"test_system": "AZ521 human stomach cancer", "assay": "In vitro anti-tumor activity against AZ-521 human stomach cancer (MTT)", "type": "cell-based", "conditions": "AZ-521, 72 h, MTT, read-out: IC50", "how_it_was_run": "as §1"}, "[5]": {"test_system": "KB human nasopharynx cancer", "assay": "In vitro anti-tumor activity against KB human nasopharynx cancer (MTT)", "type": "cell-based", "conditions": "KB, 72 h, MTT, read-out: IC50", "how_it_was_run": "as §1"}, "[6]": {"conditions": "NCI criterion, read-out: Evaluation"}, "[7]": {"conditions": "days 1 and 5, in solution, read-out: ILS (%) (in solution)"}, "[8]": {"conditions": "days 1 and 5, in suspension, read-out: ILS (%) (in suspension)"}}, "note": "Read-outs that look alike come from different tables or passages of the source."}
{"smiles": "CN[C@@H]1CN(c2ccc3c(=O)c(C(=O)O)cn(-c4nccs4)c3n2)C[C@H]1OC.Cl", "note": "(relative stereo) [Compound 1-1, 1,4-dihydro-7-(trans-3-methoxy-4-methylamino-1-pyrrolidinyl)-4-oxo-1-(2-thiazolyl)-1,8-naphthyridine-3-carboxylic acid hydrochloride]", "values": [{"measurement": "ILS at 0.78 mg/kg", "setting": "[1]; [6]", "result": "20 to 74", "unit": "%"}, {"measurement": "ILS at 1.56 mg/kg", "setting": "[1]; [6]", "result": "20 to 74", "unit": "%"}, {"measurement": "ILS at 3.13 mg/kg", "setting": "[1]; [6]", "result": "> 75", "unit": "%"}, {"measurement": "ILS at 6.25 mg/kg", "setting": "[1]; [6]", "result": "> 75", "unit": "%"}, {"measurement": "ILS at 12.5 mg/kg", "setting": "[1]; [6]", "result": "> 75", "unit": "%"}, {"measurement": "ILS at 25 mg/kg", "setting": "[1]; [6]", "result": "> 75", "unit": "%"}, {"measurement": "ILS at 50 mg/kg", "setting": "[1]; [6]", "result": "> 75", "unit": "%"}, {"measurement": "ILS at 0.78 mg/kg", "setting": "[1]; [7]", "result": 50, "unit": "%"}, {"measurement": "ILS at 1.56 mg/kg", "setting": "[1]; [7]", "result": 63, "unit": "%"}, {"measurement": "ILS at 3.13 mg/kg", "setting": "[1]; [7]", "result": 100, "unit": "%"}, {"measurement": "ILS at 3.13 mg/kg", "setting": "[1]; [8]", "result": 88, "unit": "%"}, {"measurement": "ILS at 6.25 mg/kg", "setting": "[1]; [7]", "result": 125, "unit": "%"}, {"measurement": "ILS at 12.5 mg/kg", "setting": "[1]; [7]", "result": 150, "unit": "%"}, {"measurement": "ILS at 12.5 mg/kg", "setting": "[1]; [8]", "result": 175, "unit": "%"}, {"measurement": "ILS at 25 mg/kg", "setting": "[1]; [7]", "result": 200, "unit": "%"}, {"measurement": "ILS at 50 mg/kg", "setting": "[1]; [7]", "result": "> 275", "unit": "%"}, {"measurement": "Tumor Growth Inhibition Rate IR % on the last day of observation", "setting": "[2]", "result": 91, "unit": "%"}, {"measurement": "solubility", "setting": "physchem; 0.1 m phosphate buffer, pH 7.2, aqueous buffer", "result": 20.1, "unit": "mg/mL"}, {"measurement": "solubility", "setting": "physchem; water", "result": 2.9, "unit": "mg/mL"}, {"measurement": "IC50", "setting": "[3]", "result": 0.15, "unit": "µg/mL"}, {"measurement": "LD50 at 336 h", "setting": "Acute toxicity", "result": 93.2, "unit": "mg/kg"}, {"measurement": "IC50", "setting": "A427 human lung cancer", "result": 0.0871, "unit": "µg/mL"}, {"measurement": "IC50", "setting": "[4]", "result": 0.0561, "unit": "µg/mL"}, {"measurement": "IC50", "setting": "[5]", "result": 0.11, "unit": "µg/mL"}]}
